This is an account of results in patent publication US20120040976A1, “SMALL MOLECULE IMMUNOMODULATORS FOR ALZHEIMER'S DISEASE” (HUMAN BIOMOLECULAR RESEARCH INSTITUTE, priority 2008, published 2012).

One data set concerns VDR. Briefly: VDR gene expression by qPCR in U-937 human monocytic cells treated with curcumins plus Aβ. Format: cell-based. How it is done: (§1) Cell culture conditions for monocytic cell lines. Human and mouse monocyte cell lines are grown in RPMI-1640 medium with 10% fetal bovine serum (FBS), plus glutamine and pen/strep. For treatment with compounds (curcuminoids+/−Aβ), replicate sets of 0.5-1.0 mL cultures containing 1-2×10^6 cells are set up in the wells of 48-well tissue culture plates. Both replicate sets have at least one control well receiving no added curcuminoid to provide baseline expression controls for untreated, and Aβ-only treated cells. Remaining wells receive curcuminoid in a range of 10-fold serial dilutions in DMSO, typically from […] Cultures are incubated for 20-24 hours (“overnight”) at 37° C. in atmosphere with 5% CO2. After one overnight, to one of replicate sets of cultures is added Aβ (1-42) peptide to a final concentration of 5 μg/mL.
(§2) RNA isolation and cDNA synthesis. After the first overnight incubation in the presence of curcuminoid, cells from one replicate set of wells are collected by centifugation. RNAs are extracted from pelleted cells using miniprep column kits following manufacturer's protocol for animal cells. […] of total cellular RNA from each well is quantitated using a Nanodrop spectrophotometer, and first-strand total cDNA is prepared from 0.3-1.0 μg RNA by random-hexamer priming. Following the second 20 hr. incubation in the presence of Aβ, RNA extractions and cDNA synthesis are similarly performed.
(§3) Assay development. Gene-specific mRNA levels are determined using a real-time thermocycler, and by normalizing to expression of one or more control genes. Assays for quantifying mRNA levels are based on gene sequences reported in NCBI Genbank. PCR oligonucleotide primers are selected spanning introns to minimize the opportunity for amplication from any contaminating genomic DNA in the RNA preps. Oligonucleotides are typically tested and used at a concentration of 200 nM in qPCR reactions containing SYBR dye. Control reactions include template from cDNA synthesis reactions either + or − reverse transcriptase (RT), as well as no-template controls (ntc). All reactions are performed in triplicate. Reactions are typically run with 40 cycles of 95° C. (10 sec) and 58° C. (30 sec). Melt curves based on incremental 0.5° C. increases are determined for new assays to test for uniformity of amplified products. Reaction conditions are modified as needed depending on initial test results. ‘Working’ assays are selected based on clear RNA-dependent amplification and absence of product in ‘ntc’ reactions. The following assay primers are used: […]
(§4) qPCR reactions of cultured monocyte cDNAs. One μL total cellular cDNA per reaction is used in triplicate reactions for each test gene, and for each culture treatment. SYBR-Green reactions were run on a Continuous Fluorescence real-time thermocycler and analyzed. Cycle threshold (Ct) values are recorded for each replicate reaction, and are then averaged and normalized against mean Ct values from one or more control genes. Fold-expression differences relative to untreated cells are determined using the 2^−ΔΔCt method as previously described. Data from the curcumin concentration range are plotted in order to determine EC50 values (concentrations producing one-half maximal stimulant activity), which are used for comparisons of potency between different compounds. Data are also evaluated for each gene with regard to sensitivity, maximally effective concentration of curcuminoid, response to Aβ, and overall magnitude of fold-expression changes.
Data showing in vitro up-regulation of genes associated with Aβ phagocytosis in response to curcumins. Natural curcumins and synthetic analogs were tested in U-937 human monocyte cells in vitro for their ability to modulate expression of the genes MGAT3 and TLRs −2, −3, and −4. […]
In general terms: Quantitative PCR measures a nucleic acid by following its amplification.

Another data set relates to TLR 6. The data set can be described thus: TLR 6 transcription ratio, AD patient / control PBMCs (qPCR). The settings on record: Aβ stimulation. The data set is classed as cell-based, human. The method, then: as §4
MGAT3 and/or TLR transcription were tested by qPCR in human monocyte cells treated with curcuminoids and compared the results to those treated with vehicle (Table 7). As discussed above, activation or up-regulation of macrophage MGAT3 or TLR's results in many functional outcomes, including the enhancement of […] and removal of Aβ, increased apoptosis, secretion of inflammatory cytokines, and other anti-AD antimicrobial activities. […]

Data set [1] has as its system MGAT3. The data set can be described thus: MGAT3 expression in response to oxidative stress (H2O2) in neuroblastoma cells. The settings on record: H2O2, data not shown. The data set is classed as cell-based, human. How it is done:
Gene expression in response to oxidative stress. […] The neuroblastoma SHSY5Y and wtSOD^+ overexpressing cells were subjected to varying concentrations of hydrogen peroxide (H2O2; 0.5-5 mM) for varying times. After 1, 2, and 3 hours of incubation, cells were harvested, total RNAs were isolated, and prepared cDNAs were used in qPCR experiments to quantify normalized mRNA levels. MGAT3 expression in untransfected cells increased in relation to oxidative stress conditions, with peak expression (>200-fold increased) at 2-3 hours in the presence of 2.5 mM H2O2. Again, increased SOD1 expression appeared to potentiate MGAT3 expression, with higher maximal MGAT3 expression (>300-fold increased) observed in the wtSOD^+ line, and at lower H2O2 concentrations (e.g. 0.5 mM). […] Further, curcumins may potentiate the cellular response to oxidative stress and may therefore have a protective effect.

Data set [2] deals with MGAT3. Briefly: MGAT3 gene expression by qPCR in U-937 human monocytic cells treated with curcumins plus Aβ. Format: cell-based. As to conditions: human monocytic cells (U-937), curcumin plus Aβ. The method, then:
as §1, §2
as §3, with “All reactions are performed in triplicate. Reactions are typically run with 40 cycles of 95° C. (10 sec) and 58° C. (30 sec).” left out, “products.” for “products. Reaction conditions are modified as needed depending on initial test results. ‘Working’ assays are selected based on clear RNA-dependent amplification and absence of product in ‘ntc’ reactions. The following assay primers are used:”
qPCR reactions of cultured monocyte cDNAs. […] SYBR-Green reactions were run on a Continuous Fluorescence real-time thermocycler and analyzed. Cycle threshold (Ct) values are recorded for each replicate reaction, and are then averaged and normalized against mean Ct values from one or more control genes. Fold-expression differences relative to untreated cells are determined using the 2^−ΔΔCt method as previously described. […] Data are also evaluated for each gene with regard to sensitivity, maximally effective concentration of curcuminoid, response to Aβ, and overall magnitude of fold-expression changes. […]

A further data set concerns TLR 4. The data set can be described thus: TLR 4 transcription ratio, AD patient / control PBMCs (qPCR). As to conditions: Aβ stimulation. Format: cell-based, human. The method, boiled down:
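Via qPCR on cultured human monocyte cDNA, curcuminoid-treated versus vehicle, with Aβ stimulation, in AD patient and control cells. SYBR-Green triplicate reactions; Ct averaged, normalised to control genes, fold change by 2^−ΔΔCt. EC50 taken from curcumin concentration-response data.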

Another data set can be described thus: Average solubility. Format: physicochemical.

Consider `O=C(/C=C(O)/C=C/c1ccc(O)cc1)/C=C/c1ccc(O)cc1` [Compound 1, 5-Hydroxy-1,7-bis-(4-hydroxy-phenyl)-hepta-1,4,6-trien-3-one, reference compound], for which, in the data set on VDR (human monocytes, plus Aβ), the “VDR normalized expression response (in words)” value was “modest increases”. In the data set with VDR (human monocytic cells (U-937), curcumin plus Aβ), the “Relative gene expression VDR, increased expression relative to control cells” value is reported as “+ ((+) <20-fold)”. In addition, the “Relative ratio of TLR 6 transcription in AD patient / control PBMC's” value in the data set on TLR 6 is recorded as “TLR 6 + ((+) indicates a ratio of 1.0-1.5)”. Also, the “Effect on MGAT3 expression in response to oxidative stress” value in the data set with MGAT3 [1] is “enhance MGAT3 expression”. In addition, the “Relative gene expression MGAT3, increased expression relative to control cells” value in the data set on MGAT3 [2] is recorded as “+ ((+) <20-fold)”. The “Relative ratio of TLR 4 transcription in AD patient / control PBMC's” value in the data set on TLR 4 was “TLR 4 +++ ((+++ to ++++) indicates a ratio of 2.0 and above)”. In addition, in the data set “Average solubility”, the “Avg. Solubility” value is recorded as “insol”.
